Earlier results, collected in patent US4178376A, “Method for inducing rapid therapeutically effective antimalarial levels of certain selected conventional antimalarials” (Interx Research Corporation, priority 1977, dated 1979).

Settings: water

Row | Structure (SMILES) | aqueous solubility
1 | CCCCN(CCCC)CCC(O)c1cc(-c2ccc(C(F)(F)F)cc2)nc(-c2ccc(C(F)(F)F)cc2)c1 (centres unmarked) [3-Dibutylamino-1-[2,6-bis(4-trifluoromethylphenyl)-4-pyridyl] propanol] | approximately 7.0 mg per liter of water
2 | CCCCN(CCCC)CC(O)c1cc(-c2ccc(Cl)c(Cl)c2)nc2c(Cl)cc(Cl)cc12 (centres unmarked) [Compound I] | approximately 1.0 mg per liter of water
